Counter-ions that a name gives are not always drawn.
Test system: tomato leaf transpiration
Experiment: tomato leaf transpiration inhibition bioassay
Format: in vivo, Tomato (variety: Rutgers)
Text: The compositions of the present invention improve ABA effectiveness by incorporating a surfactant, and optionally a nitrogen-containing fertilizer together with an effective amount of the plant growth regulator abscisic acid (S-ABA; ABA; S-(+)-abscisic acid; +-ABA, (+)-(S)-cis, trans-abscisic acid, (+)-(S)-cis,trans-ABA; S-ABA; (S)-5-(1-hydroxy-2,6,6,-trimethyl-4-oxo-2-cyclohexen-1-yl)-3-methyl-(2Z,4E)-pentadienoic acid; CAS registry no, [21293-29-8]). ABA effectiveness may be measured experimentally by quantifying the inhibition of transpiration in tomato leaves. This is a reliable laboratory bioassay of the level of ABA activity.
Preparation of plant specimens for use in the treatment studies of the examples described was carried out as follows. Tomato (variety: Rutgers) seeds were sown in an 18-cell flat filled with Promix PGX (available from Premier Horticulture Inc. Quakertown, Pa.) and grown for 3 weeks to allow for germination and initial growth. Plants were then transplanted into pots (18 cm in diameter and 18 cm in height), filled with Promix BX (available from Premier Horticulture Inc. Quakertown, Pa.), and grown for one or two more weeks before treatment, depending on temperature and available light. Plants received daily irrigation and weekly fertilizer (1 g/L all purpose fertilizer 20-20-20, available from The Scotts Company, Marysville, Ohio).
All treatment solutions were prepared with distilled water, ABA (95% active ingredient) is available from Lomon BioTechnology Co., Ltd. (Shichuan, China). […]
Unless otherwise specified, when a surfactant was employed, it was incorporated into the 250-ppm ABA treatment solution at a concentration of 0.05% to 0.5% (v/v).
ABA solutions and blank treatments were applied to the aerial parts of tomato plant leaves at the rate of 20 mL per 6 plants. Plants were then placed in a transparent chamber with humidity controlled within the range of 40 to 60% relative humidity. Leaf transpiration rates were measured at 1, 2 and 3 days; at 1, 2, 3 and 4 days; or at 1, 2, 3, 4 and 7 days after treatment. Measurements were conducted using a LI-1600 Steady State Porameter (LI-Cor, Lincoln, Nebr.). Each day the transpiration rate of the plants of each treatment group was normalized to the percentage of the transpiration rate of untreated plants (plants sprayed with water only) in order to control for day-to-day variability caused by changes of environmental conditions such as light intensity and temperature. In some cases, data of each plant was averaged over a 3-day period to balance the short term and long-term effect of ABA on tomato leaf transpiration as well as to control for experimental variability.
All experiments were conducted using a randomized complete block experimental design. Data were analyzed by analysis of variance. Duncan's new multiple range tests at α-005 were used for mean separations.

In the case of `CC1=CC(=O)CC(C)(C)[C@@]1(O)/C=C/C(C)=C\C(=O)O` [ABA ammonium salt, Ammonium Salt of (S)-(+)-Abscisic Acid], the “Transpiration rate (% of control)” value (250 ppm ABA or ABA ammonium salt, 1 day after treatment (Table 7)) is reported as 68 % of control, the “Transpiration rate (% of control)” value (250 ppm ABA or ABA ammonium salt, 2 days after treatment (Table 7)) is reported as 73 % of control and the “Transpiration rate (% of control)” value (250 ppm ABA or ABA ammonium salt, 3 days after treatment (Table 7)) is reported as 84 % of control. The “Transpiration rate (% of control), Average” value (250 ppm ABA or ABA ammonium salt, average of days 1-3 after treatment (Table 7)) was 75 % of control, the “Transpiration rate (% of control)” value (250 ppm ABA or salt at rates equivalent to 250 ppm ABA, 1 day after treatment (Table 10)) was 58 % of control and the “Transpiration rate (% of control)” value (250 ppm ABA or salt at rates equivalent to 250 ppm ABA, 2 days after treatment (Table 10)) was 67 % of control. For the same compound, the “Transpiration rate (% of control)” value (250 ppm ABA or salt at rates equivalent to 250 ppm ABA, 3 days after treatment (Table 10)) was 78 % of control and the “Transpiration rate (% of control), Average” value (250 ppm ABA or salt at rates equivalent to 250 ppm ABA, average of days 1-3 (Table 10)) was 68 % of control.

Source: US20130123107A1, “Use of Adjuvants to Improve Abscisic Acid Performance” (Valent BioSciences Corporation, priority 2007, published 2013)
